What was measured:
[1] = system: GBA, α-Synuclein, VPS35, Parkin, PINK, and DJ-1; test: Protein levels of other PD-associated proteins in HEK 293T cells, Western blot; format: cell-based, human; conditions: tagged proteins, 1 mM, 48 hours
Procedure: FIGS. 2A-2T depicts that AICAr, the precursor of ATIC substrate, regulates LRRK2 expression levels and neuronal toxicity. FIGS. 2A and 2B depict the overexpressed LRRK2 levels in HEK 293T cells upon AICAr treatment. HEK293 cells were transfected with MYC-LRRK2 and treated with or without 1 mM AICAr for 48 hours. LRRK2 levels were analyzed by Western blot. FIGS. 2C and 2D depict the LRRK2 expression levels in SH-SY5Y cells upon AICAr treatment. Human neuroblastoma SH-SY5Y cells were treated with or without 1 mM AICAr for 48 hours. LRRK2 expression levels were analyzed by Western blot. FIGS. 2E and 2F depict the overexpressed (3-glucocerebrosidase (GCase) levels upon AICAr treatment. HEK 293T cells were transfected with V5-GCase and treated with or without 1 mM AICAr for 48 hours. GCase levels were analyzed by Western blot. FIGS. 2G-2N depict the LRRK2 expression levels in primary neurons (FIG. 2G and FIG. 2H), microglia (FIG. 2I and FIG. 2J), astrocytes (FIG. 2K and FIG. 2L) and human fibroblasts (FIG. 2M and FIG. 2N) upon AICAr treatment. Mouse primary cortical neurons, microglia, astrocytes or human fibroblasts from a health control were treated with or without 1 mM AICAr for 48 hours. LRRK2 expression levels were analyzed by Western blot. […] LRRK2 expression levels were analyzed by Western blot. […] Images were quantified by ImageJ software. […]

DCP2 = DCP2 expression levels in SH-SY5Y cells, Western blot; format: cell-based, human; conditions: 1 mM, 48 hours
Procedure: FIGS. 6A-6E depict that the decapping enzyme complex DCP1/2 is involved in LRRK2 mRNA decay. FIGS. 6A and 6B depict the DCP1A and DCP2 expression levels upon AICAr treatment. SH-SY5Y cells were treated with or without 1 mM AICAr for 48 hours. DCP1A and DCP2 expression levels were analyzed by Western blot. Images were quantified by ImageJ software. Data are mean±SEM, n=3 independent experiments. **p<0.01 by Student's t tests. FIGS. 6C and 6D depict the LRRK2 expression levels upon DCP1A or DCP2 overexpression. SH-SY5Y cells were transduced with lentiviruses carrying Flag-DCP1A or Flag-DCP2 for 48 hours. LRRK2 expression levels were analyzed by Western blot. Images were quantified by ImageJ software. Data are mean±SEM, n=3 independent experiments. *p<0.05 by Student's t tests. FIG. 6E depict LRRK2 mRNA decapping by DCP1A and DCP2. Recombinant DCP1A and DCP2 proteins were purified from HEK 293T cells and incubated with [α-32P]cap-labeled LRRK2 RNA. LRRK2 mRNA decapping was analyzed by one-dimensional thin layer chromatography.

LRRK2 = LRRK2 levels in mouse primary neurons, microglia, astrocytes, Western blot; format: cell-based; conditions: 1 mM, 48 hours
Procedure: FIGS. 2A-2T depicts that AICAr, the precursor of ATIC substrate, regulates LRRK2 expression levels and neuronal toxicity. FIGS. 2A and 2B depict the overexpressed LRRK2 levels in HEK 293T cells upon AICAr treatment. HEK293 cells were transfected with MYC-LRRK2 and treated with or without 1 mM AICAr for 48 hours. LRRK2 levels were analyzed by Western blot. FIGS. 2C and 2D depict the LRRK2 expression levels in SH-SY5Y cells upon AICAr treatment. Human neuroblastoma SH-SY5Y cells were treated with or without 1 mM AICAr for 48 hours. LRRK2 expression levels were analyzed by Western blot. FIGS. 2E and 2F depict the overexpressed (3-glucocerebrosidase (GCase) levels upon AICAr treatment. HEK 293T cells were transfected with V5-GCase and treated with or without 1 mM AICAr for 48 hours. GCase levels were analyzed by Western blot. FIGS. 2G-2N depict the LRRK2 expression levels in primary neurons (FIG. 2G and FIG. 2H), microglia (FIG. 2I and FIG. 2J), astrocytes (FIG. 2K and FIG. 2L) and human fibroblasts (FIG. 2M and FIG. 2N) upon AICAr treatment. Mouse primary cortical neurons, microglia, astrocytes or human fibroblasts from a health control were treated with or without 1 mM AICAr for 48 hours. LRRK2 expression levels were analyzed by Western blot. FIGS. 2O and 2P depict the overexpressed LRRK2 WT and pathogenic mutant levels upon AICAr treatment. […] LRRK2 expression levels were analyzed by Western blot. […] One day after injection, striatal tissues near the injection sites were collected and LRRK2 expression levels were analyzed by Western blot. Images were quantified by ImageJ software. […] FIG. 2T depicts the quantification of neuronal viability. Bars indicate the viability (n>100) for each transfection condition expressed as a percent of control neurons (eGFP with pcDNA3.1 empty vector). Data represent the mean±SEM from three independent experiments with n>100 cells quantified in each experiment. *p<0.05, ***p<0.001, ****p<0.0001 by one-way ANOVA followed by a Tukey's post hoc test.

NC(=O)c1ncn([C@@H]2O[C@H](CO)[C@@H](O)[C@H]2O)c1N [AICAr, 5-aminoimidazole-4-carboxamide riboside]
levels of other PD-associated proteins (GBA, α-Synuclein, VPS35, Parkin, PINK, DJ-1) [1]: no changes | endogenous levels of DCP2 (DCP2): significantly increased | LRRK2 levels in astrocytes (LRRK2; mouse primary astrocytes): remained unchanged | LRRK2 levels in neurons (LRRK2; mouse primary cortical neurons): significantly decrease | LRRK2 levels in microglia (LRRK2; mouse primary microglia): significantly decrease
